From US12029716B2, “Derivatives of korormicin useful as antibiotics” (Viotika Life Sciences Inc., priority 2015, dated 2024)
Values after ≈ are worked out from the molar mass of the structure shown. “Also recorded” adds a separate entry of the source. Where two headings read alike, the source gives them in different places.

Assays:
[1] = test system: HeLa cells infected with C. trachomatis; assay: Intracellular acidification of HeLa cells infected with C. trachomatis; type: cell-based, human
Description: The mechanism of action of PEG-2 was also investigated by monitoring intracellular acidification of infected cells treated with PEG-2. If PEG-2 is working through the inhibition of Na^+-NQR and a sodium motive force, then it would be expected to have an effect on intracellular Na^+ and H^+ concentrations within infected cells. HeLa cells were infected with C. trachomatis and intracellular acidification was monitored with fluorescent indicator dyes.

[2] = test system: Chlamydia trachomatis; assay: C. trachomatis infection of HeLa cells (chlamydial inclusions, immunocytochemistry); type: cell-based; conditions: for MCC2, Minimal Chlamydicidal Concentration: after 2 passages with treatment
Description: Chlamydia trachomatis (C. trachomatis) propagation and treatment were carried out as follows. C. trachomatis was propagated in HeLa cells. The titer of C. trachomatis was determined in cyclohexamide-treated HeLa cells, and concentrations used were expressed as inclusion forming units (IFU) per mL.
Assessment of the level of infection was determined as follows. HeLa cells were seeded on glass coverslips in 24-well plates at 3×10^4 cells/well and inoculated with C. trachomatis and then treated with antibiotic (or other compounds of interest). After 48 hours, the infected cells were fixed with 100% methanol and then incubated with anti-Chlamydia monoclonal antibody. Inclusion bodies were visualized by staining with FITC-conjugated secondary antibody and DAPI as counterstaining. The samples were examined by a fluorescence microscopy. Number of inclusions was calculated per 100 cells.
Assessment of antichlamydial activity of Korormicin (Scheme shown in FIG. 1) and PEG-2 (Scheme shown in FIG. 2) were performed as follows. Cells were infected with C. trachomatis and treated with different concentrations of antibiotic of choice. After 48 h of C. trachomatis was collected (P1) and used to infect fresh cells. Subsequent collections of C. trachomatis were used to obtain P2, P3, P4 and P5 stocks of C. trachomatis. Dilution of C. trachomatis used to infect cells after treatment with PEG-2 had to be minimized in order to visualize inclusions. Last passage collection of C. trachomatis (P5) of Korormicin treatment and all collected of passages of C. trachomatis treated with PEG-2 were used to establish infectivity of treated Chlamydia (Scheme shown in FIG. 3).
For MIC50 (Minimal Concentration of the antibiotic that inhibits formation of chlamydial inclusions on 50%) determination HeLa cells were grown in 24-well or 96 well plates overnight prior to chlamydial inoculation. Elementary bodies were applied to the cells in small volume of SPG (0.22 M sucrose, 8.6 mM Na2HPO4, 3.8 mM KH2PO4, 5 mM glutamic acid, 0.2 μm-filtered, pH 7.4) and after 2 hours of incubation unattached elementary bodies were removed and infected cells were treated with different concentration of antibiotics in Dulbecco's modified Eagle's medium (DMEM, Invitrogen) with 5% fetal bovine serum (FBS, Invitrogen) in the presence of cycloheximide (1.0 μg/ml). After 42 h inclusions were visualized by immunocytochemistry.
To determent chlamydicidal effect of Korormicin (Scheme 1) and PEG-2 (Scheme 2) Hela cells were infected with C. trachomatis and treated with different concentrations of antibiotics. After 48 h of C. trachomatis was collected (P1) and used to infect fresh cells. Subsequent collections of C. trachomatis were used to obtain P2, P3, P4 and P5 stocks of C. trachomatis. Dilution of C. trachomatis used to infect cells after treatment with PEG-2 had to be minimized in order to visualize inclusions. (See Scheme 2 below). Last passage collection of C. trachomatis (P5) of Korormicin treatment and all collected of passages of C. trachomatis treated with PEG-2 were used to establish infectivity of treated C. trachomatis. Minimal chlamydicidal concentration (MCC2) for Korormicin, PEG-2 and PEG-2S was calculated after 2 passages of infection with treatment and reflect inhibition of infection for more than 90%. In all experiments inclusions were visualized by immunocytochemistry.
Cells were seeded on glass coverslips in 24-well plates (2-4×10^4 cells/well) or on glass-bottom 96 well plates (10^4 cells/well), and after overnight inoculated with C. trachomatis. After 42 hours, the infected cells were fixed with 90% acetone (or 100% methanol in case of 96 well plates) and then incubated with anti-Chlamydia antibody (Thermo Fisher Scientific). Alexa Fluor 488-conjugated anti-rabbit IgG (Molecular Probes) was used as secondary antibody. DAPI staining solution (300 nM) was added to the coverslips to identify nuclei. […]

[3] = test system: primary Vascular Smooth Muscle cells; assay: Cell toxicity / proliferation assay, primary vascular smooth muscle cells; type: cell-based, human
Description: (§1) Cell Toxicity Assay was performed as follows. HeLa, HEK293 and primary VSM cells were seeded at 5×10^3 cells/well in 96-well plates and incubated with Korormicin, PEG-2 or homoserine lactones in DMEM containing 1% fetal bovine serum (FBS; Invitrogen Corp.). After 48 hours, the number of living cells was determined by a colorimetric enzyme assay, based on a cytoplasmic enzyme activity present in viable cells.
Cells were seeded at 5×10^3 cells/well in 96-well plates and incubated with C. trachomatis in DMEM containing 1% fetal bovine serum (FBS; Invitrogen Corp.). After 48 hours, the number of living cells was determined by a colorimetric enzyme assay (CellTiter 96 Cell Proliferation Assay; Promega Corporation, Madison, WI) based on a cytoplasmic enzyme activity present in viable cells. (Cory et al. Use of an aqueous soluble tetrazolium/formazan assay for cell growth assays in culture. Cancer Commun. 1991; 3:207-212). The absorbance of a formazan product in tissue culture media was measured at 500 nm using a microplate reader.

[4] = test system: HeLa cell line; assay: Cell toxicity assay, HeLa cells; type: cell-based, human; conditions: HeLa, concentrations of up to 50 μM
Description: as §1

[5] = test system: HEK293 cells; assay: Cell toxicity assay, HEK293 cells; type: cell-based, human; conditions: HEK293, concentrations of up to 50 μM
Description: as §1

With `CCCCCCC/C=C/C=C\[C@H](O)CC(=O)NC1=C[C@](C)(CC)OC1=O` [PEG-2] the “delay of the initial C. trachomatis-induced acidification” value [1] was “at least 2 hours”, the “effect on the following acidification” value [1] was “diminishes the following acidification” and the “efficacy against C. trachomatis infection (in words)” value [2] was “effective”. The “decrease of infectivity (number of chlamydial inclusions in the next passage)” value ([2]; 1st treatment, 15 μM) was ~5 fold, the “number of inclusions, of control” value ([2]; 5 consecutive treatments, 15 μM) was 0.01% and the “MCC2, Minimal Chlamydicidal Concentration” value [2] was 5.45 µg/mL. For the same compound, the “MCC2, Minimal Chlamydicidal Concentration” value ([2]; inhibition of infection for more than 90%) was 15 µM, the “number of detectable inclusions lower” value ([2]; after 5 consecutive treatments, 15 μM) was 10,000 times and the “MIC501, Minimal Inhibitory Concentration after the treatment” value ([2]; first treatment) was 3.63 µg/mL (≈ 9.99 µM). For the same compound, the “size of chlamydial inclusions” value ([2]; fluorescence microscopy) was “noticeably smaller”, the IC50 ([2]; read-out: MIC501, Minimal Inhibitory Concentration after the treatment, first treatment, 50% inhibition of inclusion formation) was 10 µM and the IC50 ([2]; read-out: MIC502, Minimal Inhibitory Concentration after the second treatment, second treatment) was 4 µM. For the same compound, the “MIC502, Minimal Inhibitory Concentration after the second treatment” value ([2]; second treatment) was 1.45 µg/mL (≈ 3.99 µM), the “toxicity to primary cells (in words)” value ([3]; primary Vascular Smooth Muscle cells) was “low cytotoxicity; also recorded: non-toxic” and the toxic effects ([3]; primary Vascular Smooth Muscle cells, concentrations of up to 50 μM) was “no toxic effects”. For the same compound, the “toxic effects on primary cell cultures (VSMC)” value ([3]; up to 20 μM) was “no toxic effects”, the toxic effects [4] was “no toxic effects” and the toxic effects [5] was “no toxic effects”.
